In ChEMBL document CHEMBL3877266, “Repurposing N,N'-bis-(arylamidino)-1,4-piperazinedicarboxamidines: An unexpected class of potent inhibitors of cholinesterases” (Eur J Med Chem, 2017):

What was measured:
[1] = target: T1, Acetylcholinesterase (Electrophorus electricus, UniProt O42275); assay: Competitive inhibition of Electrophorus electricus acetylcholinesterase in presence of varying acetylthiocholine iodide substrate level preincubated for 20 mins followed by substrate addition measured every 1 min for 30 mins
[2] = target: T1, Acetylcholinesterase; assay: Non-competitive inhibition of Electrophorus electricus acetylcholinesterase in presence of varying acetylthiocholine iodide substrate level preincubated for 20 mins followed by substrate addition measured every 1 min for 30 mins
[3] = target: T2, Cholinesterase (Equus caballus, UniProt P81908); assay: Competitive inhibition of equine serum butyrylcholinesterase in presence of varying butyrylthiocholine iodide substrate level preincubated for 20 mins followed by substrate addition measured every 1 min for 30 mins
[4] = target: T2, Cholinesterase; assay: Non-competitive inhibition of equine serum butyrylcholinesterase in presence of varying butyrylthiocholine iodide substrate level preincubated for 20 mins followed by substrate addition measured every 1 min for 30 mins

T2 sequence (P81908 whole entry): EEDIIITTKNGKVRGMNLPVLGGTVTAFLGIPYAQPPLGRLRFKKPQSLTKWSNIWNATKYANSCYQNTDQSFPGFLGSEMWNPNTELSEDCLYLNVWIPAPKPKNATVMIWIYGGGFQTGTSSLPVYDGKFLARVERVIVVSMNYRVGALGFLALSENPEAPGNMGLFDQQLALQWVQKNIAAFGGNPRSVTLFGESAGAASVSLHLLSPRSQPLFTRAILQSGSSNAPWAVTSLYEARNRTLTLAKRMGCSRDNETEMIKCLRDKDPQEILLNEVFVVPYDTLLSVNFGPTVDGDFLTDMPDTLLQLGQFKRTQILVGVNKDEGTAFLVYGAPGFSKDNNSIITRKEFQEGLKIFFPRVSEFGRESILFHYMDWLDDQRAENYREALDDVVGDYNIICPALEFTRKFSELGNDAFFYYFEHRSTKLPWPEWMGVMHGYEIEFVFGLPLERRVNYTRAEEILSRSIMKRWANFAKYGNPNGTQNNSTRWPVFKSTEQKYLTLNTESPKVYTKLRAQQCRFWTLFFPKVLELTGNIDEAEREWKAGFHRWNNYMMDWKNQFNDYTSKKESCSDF
T1 sequence (O42275 whole entry): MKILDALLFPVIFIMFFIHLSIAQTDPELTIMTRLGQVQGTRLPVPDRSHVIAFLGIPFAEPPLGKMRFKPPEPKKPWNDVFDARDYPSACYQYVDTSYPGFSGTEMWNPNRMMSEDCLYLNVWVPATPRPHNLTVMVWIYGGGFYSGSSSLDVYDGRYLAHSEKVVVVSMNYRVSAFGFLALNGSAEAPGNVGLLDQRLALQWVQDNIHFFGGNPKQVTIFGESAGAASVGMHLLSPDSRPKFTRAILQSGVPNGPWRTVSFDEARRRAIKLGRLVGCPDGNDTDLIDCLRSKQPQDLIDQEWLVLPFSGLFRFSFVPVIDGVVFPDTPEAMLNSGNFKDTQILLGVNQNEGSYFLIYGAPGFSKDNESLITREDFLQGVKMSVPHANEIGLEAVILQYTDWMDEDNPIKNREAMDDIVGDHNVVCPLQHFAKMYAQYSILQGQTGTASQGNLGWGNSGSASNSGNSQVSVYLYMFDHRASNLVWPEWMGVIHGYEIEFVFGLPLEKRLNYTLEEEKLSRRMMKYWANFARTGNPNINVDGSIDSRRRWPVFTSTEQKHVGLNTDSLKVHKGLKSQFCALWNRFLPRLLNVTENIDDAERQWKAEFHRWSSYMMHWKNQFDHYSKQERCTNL

Row | Structure (SMILES) | Ki [1] | Ki [2] | Ki [3] | Ki [4]
1 | N=C(NC(=N)N1CCN(C(=N)NC(=N)Nc2ccc(Cl)cc2)CC1)Nc1ccc(Cl)cc1 [PICLOXYDINE] | 22 µM | 28.3 µM | 0.62 µM | 9.37 µM
2 | N=C(NC(=N)N1CCN(C(=N)NC(=N)Nc2ccc(Br)cc2)CC1)Nc1ccc(Br)cc1 | 3.43 µM | 35.5 µM | 0.61 µM | 3.84 µM
3 | N=C(NC(=N)N1CCN(C(=N)NC(=N)Nc2ccc(F)cc2)CC1)Nc1ccc(F)cc1 | 7.77 µM | 16.2 µM | 1.18 µM | 15.2 µM
4 | N=C(NC(=N)N1CCN(C(=N)NC(=N)Nc2ccc(OC(F)(F)F)cc2)CC1)Nc1ccc(OC(F)(F)F)cc1 | 19.8 µM | 62.2 µM | 3.34 µM | > 20 µM
5 | CC(C)(C)c1ccc(NC(=N)NC(=N)N2CCN(C(=N)NC(=N)Nc3ccc(C(C)(C)C)cc3)CC2)cc1 | 1.41 µM | 21.8 µM | 0.12 µM | 4.41 µM
6 | N=C(NC(=N)N1CCN(C(=N)NC(=N)Nc2ccccc2)CC1)Nc1ccccc1 | 13.5 µM | 69.2 µM | 0.95 µM | > 40 µM
7 | COc1ccc(NC(=N)NC(=N)N2CCN(C(=N)NC(=N)Nc3ccc(OC)cc3)CC2)cc1 | 25.6 µM | 88.9 µM | 1.78 µM | 35.1 µM
8 | N=C(NC(=N)N1CCN(C(=N)NC(=N)Nc2cccc(F)c2)CC1)Nc1cccc(F)c1 | 14.9 µM | 104 µM | 1.7 µM | 32.9 µM
9 | N=C(NC(=N)N1CCN(C(=N)NC(=N)Nc2ccccc2Cl)CC1)Nc1ccccc1Cl | 6.11 µM | 66.7 µM | 1.85 µM | 12.7 µM
10 | N=C(NC(=N)N1CCN(C(=N)NC(=N)Nc2cccc(Br)c2)CC1)Nc1cccc(Br)c1 | 6.17 µM | 25.4 µM | 0.23 µM | 10.3 µM
11 | N=C(NC(=N)N1CCN(C(=N)NC(=N)Nc2ccc([N+](=O)[O-])cc2)CC1)Nc1ccc([N+](=O)[O-])cc1 | 0.52 µM | 2.96 µM | 10.8 µM | 22.9 µM
12 | N=C(NC(=N)N1CCN(C(=N)NC(=N)Nc2ccc(I)cc2)CC1)Nc1ccc(I)cc1 | 5.08 µM | 49.1 µM | 0.31 µM | 2.74 µM
13 | COc1cccc(NC(=N)NC(=N)N2CCN(C(=N)NC(=N)Nc3cccc(OC)c3)CC2)c1 | 10.4 µM | 45.2 µM | 3.02 µM | 54.8 µM
14 | COc1cc(NC(=N)NC(=N)N2CCN(C(=N)NC(=N)Nc3cc(OC)c(OC)c(OC)c3)CC2)cc(OC)c1OC | 7.74 µM | 41.2 µM | 9.03 µM | 
15 | N=C(NC(=N)N1CCN(C(=N)NC(=N)Nc2cccc(Cl)c2)CC1)Nc1cccc(Cl)c1 | 4.45 µM | > 30 µM | 0.74 µM | 12.2 µM
16 | N=C(NC(=N)N1CCN(C(=N)NC(=N)Nc2ccc(Cl)cc2Cl)CC1)Nc1ccc(Cl)cc1Cl | 9.34 µM | 75.3 µM | 0.41 µM | 7.51 µM
17 | Cc1ccc(NC(=N)NC(=N)N2CCN(C(=N)NC(=N)Nc3ccc(C)cc3)CC2)cc1 | 9.25 µM | > 100 µM | 0.45 µM | 11.8 µM
18 | N=C(NC(=N)N1CCN(C(=N)NC(=N)Nc2ccccc2I)CC1)Nc1ccccc1I | 1.56 µM | > 100 µM | 1.96 µM | 11.2 µM
19 | N=C(NC(=N)N1CCN(C(=N)NC(=N)Nc2ccccc2Br)CC1)Nc1ccccc1Br | 4.19 µM | 40.5 µM | 1.25 µM | 12.3 µM
20 | COc1ccccc1NC(=N)NC(=N)N1CCN(C(=N)NC(=N)Nc2ccccc2OC)CC1 | 4.34 µM | 13.7 µM | 5.2 µM | 34 µM
21 | N=C(NC(=N)N1CCN(C(=N)NC(=N)Nc2cccc(I)c2)CC1)Nc1cccc(I)c1 | 2.79 µM | 19.9 µM | 0.21 µM | 3.04 µM
22 | N=C(NC(=N)N1CCN(C(=N)NC(=N)Nc2ccccc2F)CC1)Nc1ccccc1F | 14.9 µM | 58.6 µM | 6.82 µM | 25.5 µM
